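Briefly, cells in 96-well plates were exposed to five compound concentrations for 48 h, and endpoints were estimated by linear interpolation. The concentration for 50% growth inhibition is given as GI50.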 Active and inactive are the calls of the source. Rule as the data show it: active = GI50 up to about 1.1 µM and inactive = higher. A value given as a limit tells only on which side of the number the result lay.

Test systems include NCI-H23; Malme-3M; SK-MEL-5; SR; RPMI-8226; A549; PC-3; OVCAR-8; EKVX; MDA-N; HT-29; U-251; Hs-578T; IGROV-1; HOP-92; SF-539; HOP-62; MCF7; HL-60; SK-MEL-2.
Experiment in all cases: inhibition of tumour cell growth, NCI panel, 48 h

For the compound `Cc1c(S(=O)(=O)/N=C(\NN)Nc2ccc(Cl)cc2)sc2ccc(Cl)cc12`, the GI50 is 17.7 µM (inactive) in the experiment on NCI-H23; 22.3 µM (inactive) with Malme-3M; 17.1 µM (inactive) in the experiment on SK-MEL-5; 22.2 µM (inactive) in the experiment on SR; 27.9 µM (inactive) with RPMI-8226; 16.9 µM (inactive) in the experiment with A549. The GI50 is 15.5 µM (inactive) in the experiment on PC-3; 16.8 µM (inactive) with OVCAR-8; 13.9 µM (inactive) in the experiment with EKVX; 15.6 µM (inactive) in the experiment with MDA-N; 16.6 µM (inactive) with HT-29; 16.3 µM (inactive) in the experiment on U-251. The GI50 is 36.6 µM (inactive) in the experiment on Hs-578T; 15.2 µM (inactive) with IGROV-1; 15.1 µM (inactive) in the experiment with HOP-92; 14.3 µM (inactive) with SF-539; 18.7 µM (inactive) in the experiment with HOP-62; 14.9 µM (inactive) in the experiment with MCF7. The results for the GI50 with HL-60 and in the experiment on SK-MEL-2 were 32.4 µM (inactive) and 16.3 µM (inactive), respectively.
For `O=C(c1cc(Cl)cc(Cl)c1)N1CCN(C(=O)c2cc(Cl)cc(Cl)c2)C1=S`, the GI50 is 17.4 µM (inactive) in the experiment on NCI-H23; 11.6 µM (inactive) with Malme-3M; 16.1 µM (inactive) in the experiment on SK-MEL-5; 3.26 µM (inactive) in the experiment with SR; 2.38 µM (inactive) in the experiment with RPMI-8226; 17.7 µM (inactive) with A549. The GI50 is 13.9 µM (inactive) in the experiment with PC-3; 18.6 µM (inactive) in the experiment on OVCAR-8; 16.8 µM (inactive) in the experiment on EKVX; 14.1 µM (inactive) with MDA-N; 20.2 µM (inactive) in the experiment with HT-29; 13.1 µM (inactive) in the experiment on U-251. Besides, the GI50 in the experiment with Hs-578T was 24.2 µM (inactive); with IGROV-1 it was 14.1 µM (inactive); in the experiment with HOP-92, 6.65 µM (inactive); in the experiment with SF-539, 7.28 µM (inactive); in the experiment with HOP-62, 14.8 µM (inactive); with MCF7, 3.08 µM (inactive). Further, the GI50 in the experiment on HL-60 was 3.31 µM (inactive); in the experiment with SK-MEL-2, 16.8 µM (inactive).
As to `C=C1C(=O)OC2C1CCC(=C)C1CC(O)C(=C)C12` (stereo not given), the GI50 in the experiment with NCI-H23 is 18.7 µM (inactive); with Malme-3M, 14.3 µM (inactive); in the experiment on SK-MEL-5, 14.3 µM (inactive); in the experiment with SR it was 3.22 µM (inactive); in the experiment with RPMI-8226 it was 5.78 µM (inactive); in the experiment with A549 it was 23.8 µM (inactive). Further, the GI50 is 13.4 µM (inactive) with PC-3; 24.9 µM (inactive) in the experiment with OVCAR-8; 7.16 µM (inactive) with EKVX; 11 µM (inactive) with MDA-N; 5.57 µM (inactive) with HT-29; 23.3 µM (inactive) in the experiment on U-251. Further, the GI50 with Hs-578T is 36.9 µM (inactive); in the experiment with IGROV-1, 14 µM (inactive); with HOP-92, 3.21 µM (inactive); in the experiment on SF-539, 16.9 µM (inactive); with HOP-62, 21.2 µM (inactive); in the experiment with MCF7 it was 7.43 µM (inactive). Moreover, the GI50 is 1.82 µM (inactive) in the experiment with HL-60 and 14.3 µM (inactive) with SK-MEL-2.
As for `COc1cc(OC)c(-c2cc(=O)c3c(OC)c(OC)c(OC)c(OC)c3o2)cc1OC`, the GI50 in the experiment on NCI-H23 is 33 µM (inactive); with Malme-3M, > 100 µM (inactive); in the experiment with SK-MEL-5, 46.8 µM (inactive); in the experiment with SR, > 28.3 µM (inactive); in the experiment on RPMI-8226 it was > 20.1 µM (inactive); with A549, > 100 µM (inactive). The GI50 was 88.1 µM (inactive) in the experiment on PC-3; 31.3 µM (inactive) with OVCAR-8; > 100 µM (inactive) in the experiment on EKVX; > 100 µM (inactive) in the experiment on MDA-N; > 100 µM (inactive) with HT-29; 64 µM (inactive) in the experiment on U-251. Further, the GI50 is 32 µM (inactive) in the experiment on Hs-578T; > 100 µM (inactive) in the experiment with IGROV-1; 11.6 µM (inactive) with HOP-92; > 100 µM (inactive) in the experiment with SF-539; 36.1 µM (inactive) with HOP-62; > 100 µM (inactive) in the experiment with MCF7. Further, the GI50 in the experiment on HL-60 is 13.6 µM (inactive); in the experiment on SK-MEL-2, > 100 µM (inactive).
With `O=c1cc(NCc2ccncc2)[nH]c(=O)[nH]1`, the GI50 with NCI-H23, in the experiment with Malme-3M, with SK-MEL-5, in the experiment with SR, in the experiment with RPMI-8226 and in the experiment on A549 was > 100 µM (inactive) each time. The GI50 with PC-3, with OVCAR-8, in the experiment on EKVX, with MDA-N, in the experiment on HT-29 and with U-251 was > 100 µM (inactive) each time. Further, the GI50 with Hs-578T, with IGROV-1, in the experiment on HOP-92, in the experiment with SF-539, with HOP-62 and with MCF7 was > 100 µM (inactive) each time. Besides, the GI50 in the experiment with HL-60 and in the experiment with SK-MEL-2 was > 100 µM (inactive) in each case.
Turning to `O=C1NC2C(=CC(O)C(O)C2O)c2cc3c(cc21)OCO3` (stereo not given), the GI50 with NCI-H23 was 0.459 µM (active); with Malme-3M it was 0.488 µM (active); in the experiment with SK-MEL-5, 0.164 µM (active); in the experiment with SR, 0.109 µM (active); with RPMI-8226 it was 0.414 µM (active); in the experiment on A549 it was 0.52 µM (active). Moreover, the GI50 was 0.141 µM (active) in the experiment with PC-3; 0.233 µM (active) with OVCAR-8; 0.412 µM (active) with EKVX; 0.0832 µM (active) in the experiment with MDA-N; 0.345 µM (active) in the experiment on HT-29; 0.218 µM (active) with U-251. Besides, the GI50 with Hs-578T is 0.0794 µM (active); in the experiment with IGROV-1, 0.494 µM (active); in the experiment with HOP-92, 0.904 µM (active); with SF-539, 0.458 µM (active); in the experiment on HOP-62, 0.463 µM (active); in the experiment on MCF7, 0.338 µM (active). Moreover, the results for the GI50 in the experiment with HL-60 and in the experiment with SK-MEL-2 were 0.108 µM (active) and 0.351 µM (active), respectively.
In the case of `N#Cc1c(-c2ccccc2)c2c([nH]c1=O)-c1cc([N+](=O)[O-])ccc1CCC2`, the GI50 was 25.2 µM (inactive) with NCI-H23; 51.8 µM (inactive) in the experiment on Malme-3M; 27.9 µM (inactive) in the experiment with SK-MEL-5; 28.8 µM (inactive) with SR; 32.9 µM (inactive) with RPMI-8226; 30.3 µM (inactive) with A549. The GI50 was 39.7 µM (inactive) with PC-3; 34.3 µM (inactive) in the experiment with OVCAR-8; 26.7 µM (inactive) in the experiment with EKVX; 36.5 µM (inactive) in the experiment with MDA-N; 34.8 µM (inactive) in the experiment on HT-29; 33.3 µM (inactive) in the experiment on U-251. Further, the GI50 in the experiment on Hs-578T was 68.2 µM (inactive); in the experiment on IGROV-1, 29.9 µM (inactive); with HOP-92, 16.4 µM (inactive); with SF-539, 27.7 µM (inactive); in the experiment on HOP-62 it was 22.7 µM (inactive); in the experiment on MCF7 it was 27.7 µM (inactive). The GI50 in the experiment on HL-60 was 35.2 µM (inactive); in the experiment with SK-MEL-2 it was 25.2 µM (inactive).
Regarding `Cc1cccc(C(=O)O)c1CC1NCCC2c3ccccc3NC12` (stereo not given), the GI50 in the experiment with NCI-H23, in the experiment with Malme-3M, with SK-MEL-5, in the experiment on SR, with RPMI-8226 and in the experiment with A549 was > 100 µM (inactive) throughout. For the same compound, the GI50 with PC-3, in the experiment on OVCAR-8, in the experiment with EKVX, with MDA-N, in the experiment with HT-29 and in the experiment with U-251 was > 100 µM (inactive) throughout. For the same compound, the GI50 in the experiment on Hs-578T, in the experiment with IGROV-1, in the experiment on HOP-92, in the experiment on SF-539, in the experiment on HOP-62 and in the experiment with MCF7 was > 100 µM (inactive) throughout. The GI50 with HL-60 and with SK-MEL-2 was > 100 µM (inactive) in each case.
Take `C=C1C2CC[C@@](C)(O)C2[C@H]2OC(=O)C(=C)[C@@H]2C[C@H]1O` (stereo not given in full): the GI50 was 17.7 µM (inactive) with NCI-H23; 15.2 µM (inactive) with Malme-3M; 8.38 µM (inactive) in the experiment on SK-MEL-5; 17.1 µM (inactive) with SR; 13.1 µM (inactive) in the experiment on RPMI-8226; 29.3 µM (inactive) in the experiment on A549. The GI50 with PC-3 is 34.4 µM (inactive); in the experiment on OVCAR-8 it was 22.3 µM (inactive); in the experiment on EKVX, 29 µM (inactive); in the experiment on MDA-N, 24.5 µM (inactive); with HT-29 it was 16.1 µM (inactive); in the experiment with U-251, 31.9 µM (inactive). Besides, the GI50 in the experiment with Hs-578T is 23.4 µM (inactive); in the experiment with IGROV-1 it was 28.4 µM (inactive); in the experiment with HOP-92 it was 27.5 µM (inactive); with SF-539 it was 14.2 µM (inactive); in the experiment on HOP-62 it was 30.7 µM (inactive); with MCF7 it was 14.2 µM (inactive). Also, the figures for the GI50 in the experiment with HL-60 and in the experiment with SK-MEL-2 were 37.2 µM (inactive) and 20.9 µM (inactive), respectively.
For `CCCN1C(=O)CCC2=C1CCc1c2ccc(Cl)c1Cl`, the GI50 is 29.4 µM (inactive) in the experiment with NCI-H23; 61.1 µM (inactive) in the experiment on Malme-3M; 15.4 µM (inactive) in the experiment on SK-MEL-5; 31.8 µM (inactive) in the experiment with SR; 28.8 µM (inactive) in the experiment with RPMI-8226; 27.2 µM (inactive) with A549. For the same compound, the GI50 in the experiment with PC-3 was 27.3 µM (inactive); in the experiment on OVCAR-8, 23.2 µM (inactive); in the experiment with EKVX, 0.0305 µM (active); with MDA-N, 46 µM (inactive); in the experiment with HT-29, 34.8 µM (inactive); in the experiment with U-251 it was 22.9 µM (inactive). Further, the GI50 in the experiment on Hs-578T is 0.0472 µM (active); with IGROV-1, 30.8 µM (inactive); in the experiment with HOP-92, 21.8 µM (inactive); with SF-539, 25.9 µM (inactive); in the experiment on HOP-62, 38.5 µM (inactive); in the experiment with MCF7, 42.1 µM (inactive). Besides, the GI50 with HL-60 is 15.8 µM (inactive); with SK-MEL-2, 13.5 µM (inactive).

The values are drawn from ChEMBL document CHEMBL1201862, “PubChem BioAssay data set” (2004).
